From ChEMBL document CHEMBL1201862, “PubChem BioAssay data set” (2004)
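Protocol summary: plate cells (96-well), add compound at 5 concentrations, incubate 48 h, interpolate endpoints linearly. GI50: concentration for 50% inhibition of growth.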 Calls of active or inactive are those of the source. Cut-off read from the data, not from the text of the source: active = GI50 up to about 1.1 µM and inactive = higher.

Experiments:
Test in all cases: DTP human tumour cell line panel, 48 h
SNB-78 = test system: SNB-78
SF-295 = test system: SF-295
SR = test system: SR
M19-MEL = test system: M19-MEL
SNB-19 = test system: SNB-19
DMS-114 = test system: DMS-114
UACC-257 = test system: UACC-257
OVCAR-3 = test system: OVCAR-3
SK-OV-3 = test system: SK-OV-3
A549 = test system: A549
COLO 205 = test system: COLO 205
KM12 = test system: KM12
HOP-62 = test system: HOP-62
SN12C = test system: SN12C
SK-MEL-2 = test system: SK-MEL-2
SF-539 = test system: SF-539
CAKI-1 = test system: CAKI-1
UO-31 = test system: UO-31
K562 = test system: K562
HT-29 = test system: HT-29
OVCAR-5 = test system: OVCAR-5
MCF7 = test system: MCF7
A498 = test system: A498
SK-MEL-5 = test system: SK-MEL-5
SW-620 = test system: SW-620
HOP-92 = test system: HOP-92
NCI-H23 = test system: NCI-H23
EKVX = test system: EKVX
UACC-62 = test system: UACC-62
LXFL 529 = test system: LXFL 529
HL-60 = test system: HL-60
DLD-1 = test system: DLD-1
HCT-116 = test system: HCT-116
SF-268 = test system: SF-268
RPMI-8226 = test system: RPMI-8226
TK-10 = test system: TK-10
HOP-18 = test system: HOP-18
IGROV-1 = test system: IGROV-1
CCRF-CEM = test system: CCRF-CEM
SNB-75 = test system: SNB-75
XF498 = test system: XF498
DMS-273 = test system: DMS-273
M14 = test system: M14
HCC 2998 = test system: HCC 2998
NCI-H226 = test system: NCI-H226
ACHN = test system: ACHN
NCI-H460 = test system: NCI-H460
LOX IMVI = test system: LOX IMVI
RXF 393 = test system: RXF 393
Malme-3M = test system: Malme-3M
KM-20L2 = test system: KM-20L2
HCT-15 = test system: HCT-15
OVCAR-8 = test system: OVCAR-8
U-251 = test system: U-251
OVCAR-4 = test system: OVCAR-4
NCI/ADR-RES = test system: NCI/ADR-RES
MOLT-4 = test system: MOLT-4
SK-MEL-28 = test system: SK-MEL-28
NCI-H522 = test system: NCI-H522
786-0 = test system: 786-0
RXF 631 = test system: RXF 631

COc1cc2c(c(OC)c1OC)C(=O)NCCC2
GI50 (SNB-78): > 100 µM (inactive)
GI50 (SF-295): > 100 µM (inactive)
GI50 (SR): > 100 µM (inactive)
GI50 (M19-MEL): > 100 µM (inactive)
GI50 (SNB-19): > 100 µM (inactive)
GI50 (DMS-114): > 100 µM (inactive)
GI50 (UACC-257): > 100 µM (inactive)
GI50 (OVCAR-3): > 100 µM (inactive)
GI50 (SK-OV-3): > 100 µM (inactive)
GI50 (A549): > 100 µM (inactive)
GI50 (COLO 205): > 100 µM (inactive)
GI50 (KM12): > 100 µM (inactive)
GI50 (HOP-62): > 100 µM (inactive)
GI50 (SN12C): > 100 µM (inactive)
GI50 (SK-MEL-2): > 100 µM (inactive)
GI50 (SF-539): > 100 µM (inactive)
GI50 (CAKI-1): > 100 µM (inactive)
GI50 (UO-31): > 100 µM (inactive)
GI50 (K562): > 100 µM (inactive)
GI50 (HT-29): > 100 µM (inactive)
GI50 (OVCAR-5): > 100 µM (inactive)
GI50 (MCF7): > 100 µM (inactive)
GI50 (A498): > 100 µM (inactive)
GI50 (SK-MEL-5): > 100 µM (inactive)
GI50 (SW-620): > 100 µM (inactive)
GI50 (HOP-92): > 100 µM (inactive)
GI50 (NCI-H23): > 100 µM (inactive)
GI50 (EKVX): > 100 µM (inactive)
GI50 (UACC-62): > 100 µM (inactive)
GI50 (LXFL 529): > 100 µM (inactive)
GI50 (HL-60): > 63.1 µM (inactive)
GI50 (DLD-1): > 100 µM (inactive)
GI50 (HCT-116): > 100 µM (inactive)
GI50 (SF-268): > 100 µM (inactive)
GI50 (RPMI-8226): > 100 µM (inactive)
GI50 (TK-10): > 100 µM (inactive)
GI50 (HOP-18): > 100 µM (inactive)
GI50 (IGROV-1): > 100 µM (inactive)
GI50 (CCRF-CEM): > 100 µM (inactive)
GI50 (SNB-75): 69.7 µM (inactive)
GI50 (XF498): > 100 µM (inactive)
GI50 (DMS-273): > 100 µM (inactive)
GI50 (M14): > 100 µM (inactive)
GI50 (HCC 2998): > 92.9 µM (inactive)
GI50 (NCI-H226): > 100 µM (inactive)
GI50 (ACHN): > 100 µM (inactive)
GI50 (NCI-H460): > 100 µM (inactive)
GI50 (LOX IMVI): > 100 µM (inactive)
GI50 (RXF 393): > 100 µM (inactive)
GI50 (Malme-3M): > 100 µM (inactive)
GI50 (KM-20L2): > 100 µM (inactive)
GI50 (HCT-15): > 100 µM
GI50 (OVCAR-8): > 100 µM (inactive)
GI50 (U-251): > 100 µM (inactive)
GI50 (OVCAR-4): > 100 µM (inactive)
GI50 (NCI/ADR-RES): > 100 µM (inactive)
GI50 (MOLT-4): > 100 µM (inactive)
GI50 (SK-MEL-28): > 100 µM (inactive)
GI50 (NCI-H522): > 100 µM (inactive)
GI50 (786-0): > 100 µM (inactive)

C[n+]1c2ccccc2c(/C=N\NS(=O)(=O)c2ccc(O)c(C(=O)O)c2)c2ccccc21
GI50 (SNB-78): > 100 µM (inactive)
GI50 (SF-295): > 100 µM (inactive)
GI50 (M19-MEL): 99.8 µM (inactive)
GI50 (SNB-19): 67.9 µM (inactive)
GI50 (DMS-114): 34 µM (inactive)
GI50 (UACC-257): > 10 µM (inactive)
GI50 (OVCAR-3): 49.1 µM (inactive)
GI50 (SK-OV-3): > 100 µM (inactive)
GI50 (A549): 23.4 µM (inactive)
GI50 (KM12): 60.3 µM (inactive)
GI50 (HOP-62): > 100 µM (inactive)
GI50 (SN12C): 67.8 µM (inactive)
GI50 (SK-MEL-2): 63.5 µM (inactive)
GI50 (SF-539): 63.4 µM (inactive)
GI50 (CAKI-1): 28.2 µM (inactive)
GI50 (UO-31): 29.2 µM (inactive)
GI50 (K562): 27.5 µM (inactive)
GI50 (HT-29): 35.3 µM (inactive)
GI50 (OVCAR-5): > 100 µM (inactive)
GI50 (A498): 37.6 µM (inactive)
GI50 (SK-MEL-5): 39.8 µM (inactive)
GI50 (SW-620): 41.1 µM (inactive)
GI50 (HOP-92): 46.7 µM (inactive)
GI50 (NCI-H23): 91.4 µM (inactive)
GI50 (EKVX): 78.9 µM (inactive)
GI50 (UACC-62): 49.3 µM (inactive)
GI50 (HL-60): 22.1 µM (inactive)
GI50 (DLD-1): 58.7 µM (inactive)
GI50 (HCT-116): 32.6 µM (inactive)
GI50 (SF-268): 40.7 µM (inactive)
GI50 (RPMI-8226): 40.6 µM (inactive)
GI50 (TK-10): > 100 µM (inactive)
GI50 (IGROV-1): 58.5 µM (inactive)
GI50 (CCRF-CEM): 21.8 µM (inactive)
GI50 (SNB-75): 34.2 µM (inactive)
GI50 (XF498): 14.9 µM (inactive)
GI50 (DMS-273): 35.6 µM (inactive)
GI50 (M14): 64.1 µM (inactive)
GI50 (HCC 2998): > 100 µM (inactive)
GI50 (RXF 631): 31.6 µM (inactive)
GI50 (NCI-H226): 26.1 µM (inactive)
GI50 (ACHN): 80.2 µM (inactive)
GI50 (NCI-H460): 36.2 µM (inactive)
GI50 (LOX IMVI): 12.9 µM (inactive)
GI50 (RXF 393): 32.7 µM (inactive)
GI50 (Malme-3M): > 100 µM (inactive)
GI50 (KM-20L2): 53.6 µM (inactive)
GI50 (HCT-15): 38.7 µM
GI50 (OVCAR-8): 43.7 µM (inactive)
GI50 (U-251): 94 µM (inactive)
GI50 (OVCAR-4): > 100 µM (inactive)
GI50 (MOLT-4): 18.5 µM (inactive)
GI50 (SK-MEL-28): 61.7 µM (inactive)
GI50 (NCI-H522): 30.6 µM (inactive)
GI50 (786-0): 34.4 µM (inactive)

COc1ccc2cc1Oc1ccc(cc1)C[C@@H]1c3cc(c(OC)cc3CCN1C)Oc1c(OC)c(OC)cc3c1[C@@H](C2)N(C)CC3 [PHAEANTHINE]
GI50 (SNB-78): 16.6 µM (inactive)
GI50 (SF-295): 17.5 µM (inactive)
GI50 (SR): 15.9 µM (inactive)
GI50 (SNB-19): 16.9 µM (inactive)
GI50 (UACC-257): 14.9 µM (inactive)
GI50 (OVCAR-3): 15.7 µM (inactive)
GI50 (SK-OV-3): 24.7 µM (inactive)
GI50 (HOP-62): 18.9 µM (inactive)
GI50 (SF-539): 10.9 µM (inactive)
GI50 (K562): 2.11 µM (inactive)
GI50 (A498): 18.5 µM (inactive)
GI50 (SK-MEL-5): 17.2 µM (inactive)
GI50 (HOP-92): 13.2 µM (inactive)
GI50 (NCI-H23): 17.6 µM (inactive)
GI50 (LXFL 529): 18.7 µM (inactive)
GI50 (HL-60): 16.7 µM (inactive)
GI50 (DLD-1): 24.8 µM (inactive)
GI50 (HCT-116): 2.83 µM (inactive)
GI50 (SF-268): 25 µM (inactive)
GI50 (RPMI-8226): 15.6 µM (inactive)
GI50 (TK-10): 19.2 µM (inactive)
GI50 (IGROV-1): 19.8 µM (inactive)
GI50 (CCRF-CEM): 14.3 µM (inactive)
GI50 (SNB-75): 9.73 µM (inactive)
GI50 (XF498): 6.98 µM (inactive)
GI50 (DMS-273): 17.3 µM (inactive)
GI50 (M14): 1.98 µM (inactive)
GI50 (HCC 2998): 15.8 µM (inactive)
GI50 (RXF 631): 14.1 µM (inactive)
GI50 (ACHN): 19.2 µM (inactive)
GI50 (NCI-H460): 14.3 µM (inactive)
GI50 (RXF 393): 1.6 µM (inactive)
GI50 (KM-20L2): 6.56 µM (inactive)
GI50 (HCT-15): 15.6 µM
GI50 (OVCAR-8): 14.9 µM (inactive)
GI50 (U-251): 13.2 µM (inactive)
GI50 (NCI-H522): 15.7 µM (inactive)
